In ChEMBL document CHEMBL3272315, “Synthesis of angiotensin II antagonists containing N- and O-methylated and other amino acid residues” (J Med Chem, 1976):
Non-standard residues stand in square brackets, D forms with d. Residues, ends and D or L forms follow the SMILES beside them. Sar = CNCC(=O)O

Columns and labels:
[1] = tested on: Rattus norvegicus; assay: Induction of blood pressure in sham operated rat at 250 ng/kg/min, iv measured at 3 mins (reference value: 0.78 +/- 0.26 mmHg); assay type: functional
[2] = tested on: Rattus norvegicus; assay: Induction of blood pressure in sham operated rat at 250 ng/kg/min, iv measured at 30 mins (reference value: 3.66 +/- 0.74 mmHg); assay type: functional
[3] = tested on: Rattus norvegicus; assay: Potentiation of angiotensin 2-induced blood pressure in sham operated rat at 250 ng/kg/min, iv relative to before compound infusion; assay type: functional
[4] = tested on: Rattus norvegicus; assay: Induction of blood pressure in rat at 250 ng/kg/min, iv measured at 3 mins in presence of propranolol (reference value: 0.78 +/- 0.26 mmHg); assay type: functional
[5] = tested on: Rattus norvegicus; assay: Induction of blood pressure in rat at 250 ng/kg/min, iv measured at 30 mins in presence of propranolol (reference value: 3.66 +/- 0.74 mmHg); assay type: functional
[6] = species on record: Felis catus; assay: Agonist activity at angiotensin AT2 receptor in isolated cat adrenal medulla assessed as secretory activity relative to angiotensin 2; assay type: tissue-based
[7] = Antagonist activity at angiotensin AT2 receptor in isolated cat adrenal medulla; assay type: tissue-based, Felis catus
[8] = tested on: Rattus norvegicus; assay: Induction of blood pressure in rat at 250 ng/kg/min, iv measured at 3 mins (reference value: 0.78 +/- 0.26 mmHg); assay type: functional
[9] = tested on: Rattus norvegicus; assay: Induction of blood pressure in rat at 250 ng/kg/min, iv measured at 30 mins (reference value: 3.66 +/- 0.74 mmHg); assay type: functional
[10] = tested on: Rattus norvegicus; assay: Induction of blood pressure in acute adrenalectomized rat at 250 ng/kg/min, iv measured at 3 mins (reference value: 0.78 +/- 0.26 mmHg); assay type: functional
[11] = tested on: Rattus norvegicus; assay: Induction of blood pressure in acute adrenalectomized rat at 250 ng/kg/min, iv measured at 30 mins (reference value: 3.66 +/- 0.74 mmHg); assay type: functional
[12] = tested on: Rattus norvegicus; assay: Induction of blood pressure in 6 days adrenalectomized rat at 250 ng/kg/min, iv measured at 3 mins (reference value: 0.78 +/- 0.26 mmHg); assay type: functional
[13] = tested on: Rattus norvegicus; assay: Induction of blood pressure in 6 days adrenalectomized rat at 250 ng/kg/min, iv measured at 30 mins (reference value: 3.66 +/- 0.74 mmHg); assay type: functional
[14] = tested on: Rattus norvegicus; assay: Induction of blood pressure in chronic adrenalectomized rat at 250 ng/kg/min, iv measured at 3 mins (reference value: 0.78 +/- 0.26 mmHg); assay type: functional
[15] = tested on: Rattus norvegicus; assay: Induction of blood pressure in chronic adrenalectomized rat at 250 ng/kg/min, iv measured at 30 mins (reference value: 3.66 +/- 0.74 mmHg); assay type: functional
[16] = tested on: Rattus norvegicus; assay: Potentiation of angiotensin 2-induced blood pressure in rat at 250 ng/kg/min, iv relative to before compound infusion; assay type: functional
[17] = tested on: Rattus norvegicus; assay: Potentiation of angiotensin 2-induced blood pressure in acute adrenalectomized rat at 250 ng/kg/min, iv relative to before compound infusion; assay type: functional
[18] = tested on: Rattus norvegicus; assay: Potentiation of angiotensin 2-induced blood pressure in acute adrenalectomized rat at 250 ng/kg/min, iv in presence of propranolol relative to before compound infusion; assay type: functional
[19] = tested on: Rattus norvegicus; assay: Potentiation of angiotensin 2-induced blood pressure in 6 days adrenalectomized rat at 250 ng/kg/min, iv in presence of propranolol relative to before compound infusion; assay type: functional
[20] = tested on: Rattus norvegicus; assay: Potentiation of angiotensin 2-induced blood pressure in chronic adrenalectomized rat at 250 ng/kg/min, iv in presence of propranolol relative to before compound infusion; assay type: functional
[21] = Antagonist activity at angiotensin AT2 receptor in rabbit aortic strips assessed as inhibition of angiotensin 2- myotropic mediated response; settings: Oryctolagus cuniculus; read-out: pA2 (converted)
[22] = species on record: Rattus norvegicus; assay: Induction of pressor in vagotomized and ganglion-blocked rat assessed as initial pressor activity relative to angiotensin 2; assay type: functional
[23] = tested on: Rattus norvegicus; assay: Induction of blood pressure in vagotomized and ganglion-blocked rat at 250 ng/kg/min, iv measured at 3 mins; assay type: functional
[24] = tested on: Rattus norvegicus; assay: Induction of blood pressure in vagotomized and ganglion-blocked rat at 250 ng/kg/min, iv measured at 10 mins; assay type: functional
[25] = tested on: Rattus norvegicus; assay: Induction of blood pressure in vagotomized and ganglion-blocked rat at 250 ng/kg/min, iv measured at 30 mins; assay type: functional
[26] = tested on: Rattus norvegicus; assay: Potentiation of angiotensin 2-induced of blood pressure in vagotomized and ganglion-blocked rat at 250 ng/kg/min, iv relative to before compound infusion; assay type: functional
[27] = species on record: Rattus norvegicus; assay: Induction of pressor in vagotomized and ganglion-blocked rat assessed as initial pressor activity up to 10 ug/ml relative to angiotensin 2; assay type: functional
[28] = tested on: Rattus norvegicus; assay: Induction of blood pressure in vagotomized and ganglion-blocked rat at 6000 ng/kg/min, iv measured at 3 mins; assay type: functional
[29] = tested on: Rattus norvegicus; assay: Induction of blood pressure in vagotomized and ganglion-blocked rat at 6000 ng/kg/min, iv measured at 10 mins; assay type: functional
[30] = tested on: Rattus norvegicus; assay: Induction of blood pressure in vagotomized and ganglion-blocked rat at 6000 ng/kg/min, iv measured at 30 mins; assay type: functional
[31] = tested on: Rattus norvegicus; assay: Potentiation of angiotensin 2-induced of blood pressure in vagotomized and ganglion-blocked rat at 6000 ng/kg/min, iv relative to before compound infusion; assay type: functional
[32] = tested on: Rattus norvegicus; assay: Induction of blood pressure in acute adrenalectomized rat at 250 ng/kg/min, iv measured at 3 mins in presence of propranolol (reference value: 0.78 +/- 0.26 mmHg); assay type: functional
[33] = tested on: Rattus norvegicus; assay: Induction of blood pressure in acute adrenalectomized rat at 250 ng/kg/min, iv measured at 30 mins in presence of propranolol (reference value: 3.66 +/- 0.74 mmHg); assay type: functional

SMILES	Activity [6]	pA2 [7]	Activity [8]	Activity [9]	Activity [10]	Activity [11]	Ratio [16]	Ratio [17]	Kb [21]	Activity [22]	Activity [23]	Activity [24]	Activity [25]	Ratio [26]	further results
CC[C@H](C)[C@H](NC(=O)[C@H](Cc1ccc(O)cc1)NC(=O)[C@@H](NC(=O)[C@H](CCCNC(=N)N)NC(=O)CNC)C(C)C)C(=O)N[C@@H](Cc1cnc[nH]1)C(=O)N1CCC[C@H]1C(=O)N[C@H](C(=O)O)[C@@H](C)OC	0.1%	7	13.82 mmHg	15.63 mmHg	7.75 mmHg	7.62 mmHg	62.52	22.96	–	–	–	–	–	–	Activity [1]: 19.25 mmHg; Activity [2]: 11 mmHg; Ratio [3]: 45.86; Activity [4]: 11.5 mmHg; Activity [5]: -1.25 mmHg; Activity [12]: 3 mmHg; Activity [13]: -0.4 mmHg; Activity [14]: 5 mmHg; Activity [15]: 2.25 mmHg; Ratio [18]: 54.16; Ratio [19]: 11.61; Ratio [20]: 12.06
CC[C@H](C)[C@H](NC(=O)[C@@H]1CCCN1C(=O)[C@H](Cc1c[nH]cn1)NC(=O)[C@@H](NC(=O)[C@H](Cc1ccc(O)cc1)NC(=O)[C@@H](NC(=O)[C@H](CCCN=C(N)N)NC(=O)CNC)C(C)C)[C@@H](C)CC)C(=O)O	3%	9.5	17.81 mmHg	14.81 mmHg	8.9 mmHg	1.8 mmHg	27.79	6.04	0.676 nM	–	–	–	–	–	–
CC[C@H](C)[C@H](NC(=O)[C@@H]1CCCN1C(=O)[C@H](Cc1c[nH]cn1)NC(=O)[C@H]([C@@H](C)CC)N(C)C(=O)[C@H](Cc1ccc(O)cc1)NC(=O)[C@@H](NC(=O)[C@H](CCCN=C(N)N)NC(=O)CNC)C(C)C)C(=O)O	0.01%	9.31	–	–	–	–	–	–	22.9 nM	0.46%	15.66 mmHg	23 mmHg	22.8 mmHg	3.26	–
CC[C@H](C)[C@H](NC(=O)[C@H](Cc1ccc(O)cc1)NC(=O)[C@@H](NC(=O)[C@H](CCCN=C(N)N)NC(=O)CNC)C(C)C)C(=O)N[C@@H](Cc1c[nH]cn1)C(=O)N1CCC[C@H]1C(=O)N[C@H](C(=O)O)[C@@H](C)O (H-[Sar]RVYIHPT-OH)	0%	9	9.46 mmHg	9.2 mmHg	7.57 mmHg	4.57 mmHg	–	5.52	–	–	–	–	–	26.9	–
CC[C@H](C)[C@@H](C(=O)N[C@@H](Cc1cnc[nH]1)C(=O)N1CCC[C@H]1C(=O)N(C)[C@H](C(=O)O)[C@@H](C)CC)N(C)C(=O)[C@H](Cc1ccc(O)cc1)NC(=O)[C@@H](NC(=O)[C@H](CCCNC(=N)N)NC(=O)CNC)C(C)C	< 0.01%	8	–	–	–	–	–	–	12.9 nM	–	1 mmHg	3.2 mmHg	7 mmHg	0.62	Activity [27]: 0%; Activity [28]: 2.5 mmHg; Activity [29]: 3.16 mmHg; Activity [30]: 7.33 mmHg; Ratio [31]: 0.82
CC[C@H](C)[C@H](NC(=O)[C@H](Cc1ccc(O)cc1)NC(=O)[C@@H](NC(=O)[C@H](CCCNC(=N)N)NC(=O)CNC)C(C)C)C(=O)N[C@@H](Cc1cnc[nH]1)C(=O)N1CCC[C@H]1C(=O)N[C@@H](CO)C(=O)O (H-[Sar]RVYIHPS-OH)	0.05%	9.33	–	–	–	–	–	–	8.32 nM	0.66%	9.57 mmHg	9.57 mmHg	11.42 mmHg	11.15	–
CC[C@H](C)[C@H](NC(=O)[C@H](Cc1ccc(O)cc1)NC(=O)[C@@H](NC(=O)[C@H](CCCNC(=N)N)NC(=O)CNC)C(C)C)C(=O)N[C@@H](Cc1cnc[nH]1)C(=O)N1CCC[C@H]1C(=O)N(C)[C@H](C(=O)O)[C@@H](C)CC	0.1%	8	25.1 mmHg	32 mmHg	24.66 mmHg	30.33 mmHg	2.99	2.53	14.1 nM	1.06%	25.1 mmHg	36 mmHg	32 mmHg	2.99	Activity [32]: 21 mmHg; Activity [33]: 17.71 mmHg; Ratio [18]: 2.56
CC[C@H](C)[C@H](NC(=O)[C@@H]1CCCN1C(=O)[C@H](Cc1cnc[nH]1)NC(=O)[C@@H](NC(=O)[C@H](Cc1ccc(O)cc1)N(C)C(=O)[C@@H](NC(=O)[C@H](CCCNC(=N)N)NC(=O)CNC)C(C)C)[C@@H](C)CC)C(=O)O	0.11%	9.16	–	–	–	–	–	–	36.3 nM	0.34%	8 mmHg	10 mmHg	9.8 mmHg	2.14	Activity [28]: 39.2 mmHg; Activity [29]: 21.6 mmHg; Activity [30]: 14.4 mmHg; Ratio [31]: 12.09
CC[C@H](C)[C@H](NC(=O)[C@H](Cc1ccc(O)cc1)NC(=O)[C@@H](NC(=O)[C@H](CCCNC(=N)N)NC(=O)CNC)C(C)C)C(=O)N[C@@H](Cc1cnc[nH]1)C(=O)N1CCC[C@H]1C(=O)N[C@@H](CCSC)C(=O)O (H-[Sar]RVYIHPM-OH)	< 0.01%	9.16	–	–	–	–	–	–	2.34 nM	3.74%	36.75 mmHg	36.75 mmHg	32.5 mmHg	–	–
CC[C@H](C)[C@H](NC(=O)[C@@H]1CCCN1C(=O)[C@H](Cc1cnc[nH]1)NC(=O)[C@@H](NC(=O)[C@H](Cc1ccc(O)cc1)NC(=O)[C@@H](NC(=O)[C@H](CCCNC(=N)N)NC(=O)[C@H](CC(=O)O)NC)C(C)C)[C@@H](C)CC)C(=O)O	1.01%	8.16	–	–	–	–	–	–	1.82 nM	0.76%	10.14 mmHg	16.57 mmHg	16.57 mmHg	33.43	–
